From ChEMBL document CHEMBL1671795, “Evaluation of endogenous fatty acid amides and their synthetic analogues as potential anti-inflammatory leads” (Bioorg Med Chem, 2011)

Assays:
[1] = system: RAW264.7; experiment: Antiinflammatory activity against LPS-stimulated mouse RAW264.7 cells assessed as inhibition of NO production at 3.125 to 25 uM after 24 hrs by Griess method; format: functional, cell-based
[2] = system: RAW264.7; experiment: Cytotoxicity against mouse RAW264.7 cells at 50 uM after 24 hrs by MTT assay; format: cell-based; conditions: raw264.7, 24 h
[3] = system: RAW264.7; experiment: Cytotoxicity against mouse RAW264.7 cells at 100 uM after 24 hrs by MTT assay; format: cell-based; conditions: raw264.7, 24 h
[4] = system: RAW264.7; experiment: Antiinflammatory activity against LPS-stimulated mouse RAW264.7 cells assessed as inhibition of TNFalpha production at 1 to 15 uM after 18 hrs by ELISA; format: functional, cell-based
[5] = system: RAW264.7; experiment: Antiinflammatory activity against LPS-stimulated mouse RAW264.7 cells assessed as inhibition of IL1-beta production at 1 to 15 uM after 18 hrs by ELISA; format: functional, cell-based
[6] = system: RAW264.7; experiment: Antiinflammatory activity against LPS-stimulated mouse RAW264.7 cells assessed as inhibition of IL-6 production at 1 to 15 uM after 18 hrs by ELISA; format: functional, cell-based
[7] = system: HaCaT; experiment: Antiinflammatory activity against IFN-gamma-stimulated human HaCaT cells assessed as inhibition of chemokine MDC production at 50 to 100 uM after 18 hrs by ELISA; format: functional, cell-based
[8] = system: HaCaT; experiment: Cytotoxicity against human HaCaT cells at 50 to 100 uM after 24 hrs by MTT assay; format: cell-based
[9] = Cytotoxicity against mouse RAW264.7 cells after 24 hrs by MTT assay; format: cell-based; conditions: read-out: TC50

Structure (SMILES)	Activity [1]	Activity ([1]; record 2) [µM]	Activity [2]	Activity [3]	Activity [4]	Activity [5]	Activity [6]	Activity [7]	Activity [8]	CC50 at 24 h [9] [µM]	IC50 ([1]; Mus musculus, RAW264.7, 24 h) [µM]
CCCCCCCC/C=C\CCCCCCCC(=O)NCCc1ccc(O)c(O)c1 [OLEOYL DOPAMINE]	Dose-dependent effect	2	Toxic	Toxic	Dose-dependent effect	Dose-dependent effect	Dose-dependent effect	Non-toxic	Toxic	13	
CCCCCCCCC(=O)/C=C/CCCCCCC(=O)NCCc1c[nH]c2ccc(O)cc12	Dose-dependent effect		Toxic	Toxic				Non-toxic	Toxic		
CCCCCCCCC(=O)/C=C/CCCCCCC(=O)NCCc1ccc(O)c(O)c1	Dose-dependent effect		Toxic	Toxic	Dose-dependent effect	Dose-dependent effect	Dose-dependent effect	Non-toxic	Toxic	13	2
CC/C=C\C/C=C\C/C=C\CCCCCCCC(=O)NCCc1ccc(O)c(O)c1 [LINOLEOYL DOPAMINE]	Dose-dependent effect				Dose-dependent effect	Dose-dependent effect	Dose-dependent effect	Non-toxic			
CCCCCCCC/C=C/C(=O)CCCCCCC(=O)NCC(=O)O	Dose-dependent effect		Toxic	Toxic				Non-toxic	Toxic		
CCCCCCCC/C=C\CCCCCCCCCCCC(=O)NCCc1ccc(O)c(O)c1	Dose-dependent effect	2	Toxic	Toxic	Dose-dependent effect	Dose-dependent effect	Dose-dependent effect	Non-toxic	Toxic	13	
CCCCC/C=C\C/C=C\CCCCCCCC(=O)NCCc1ccc(O)c(O)c1	Dose-dependent effect	2	Toxic	Toxic	Dose-dependent effect	Dose-dependent effect	Dose-dependent effect	Non-toxic	Toxic	13	
CCCCC/C=C\C/C=C\CCCCCCCC(=O)NCc1ccc(O)c(OC)c1					Dose-dependent effect	Dose-dependent effect	Dose-dependent effect	Non-toxic	Toxic		
CCCCCCCCC(=O)/C=C/CCCCCCC(=O)NCC(O)CO (racemic)	Dose-dependent effect		Toxic	Toxic				Non-toxic	Toxic		
CCCCCCCCC(=O)/C=C/CCCCCCC(=O)NCCCl	Dose-dependent effect		Toxic	Toxic				Non-toxic	Toxic		
CCCCCCC/C=C/C(=O)CCCCCCCC(=O)NCCc1c[nH]c2ccc(O)cc12			Toxic	Toxic				Non-toxic	Toxic		
CCCCCCCCCCCCCCCC(=O)NCc1ccc(O)c(OC)c1					Dose-dependent effect	Dose-dependent effect	Dose-dependent effect	Non-toxic	Toxic		
CCCCCCCC(=O)/C=C/CCCCCCCC(=O)NCCO			Toxic	Toxic				Non-toxic	Toxic		
CCCCCCCCC(=O)/C=C/CCCCCCC(=O)N[C@H](C)CO	Dose-dependent effect		Toxic	Toxic				Non-toxic	Toxic		
CC/C=C\C/C=C\C/C=C\CCCCCCCC(=O)NCc1ccc(O)c(OC)c1					Dose-dependent effect	Dose-dependent effect	Dose-dependent effect	Non-toxic	Toxic		
CCCCCCC/C=C/C(=O)CCCCCCCC(=O)NCC(=O)O	Dose-dependent effect		Toxic	Toxic				Non-toxic	Toxic		
CCCCCCCC/C=C\CCCCCCCC(=O)NCc1ccc(O)c(OC)c1 [OLVANIL]					Dose-dependent effect	Dose-dependent effect	Dose-dependent effect	Non-toxic	Toxic		
CCCCCCCCC(=O)/C=C/CCCCCCC(=O)NC(C)C	Dose-dependent effect		Toxic	Toxic				Non-toxic	Toxic		
CCCCCCCC(=O)/C=C/CCCCCCCC(=O)NCC(O)CO (racemic)			Toxic	Toxic				Non-toxic	Toxic		
CCCCCCCC/C=C\CCCCCCCCCCCC(=O)NCc1ccc(O)c(OC)c1					Dose-dependent effect	Dose-dependent effect	Dose-dependent effect	Non-toxic	Toxic		
CCCCCCCCC(=O)/C=C/CCCCCCC(=O)NCCO	Dose-dependent effect		Toxic	Toxic				Non-toxic	Toxic		
CCCCCCCCCCCCCCCC(=O)NCCc1ccc(O)c(O)c1 [PALMITOYL DOPAMINE]	Dose-dependent effect	2	Toxic	Toxic	Dose-dependent effect	Dose-dependent effect	Dose-dependent effect	Non-toxic	Toxic	13	
